Results: ChEMBL document CHEMBL4680208, “Sulfone derivatives enter the cytoplasm of Candida albicans sessile cells” (Eur J Med Chem, 2020)
Calls of active or inactive are those of the source. No cut-off for these calls is given here.

Experiments:
Candida albicans [1] = experiment: Antifungal activity against Candida albicans 90028 assessed as fungal growth inhibition at 8 ug/ml measured after 48 hrs by microdilution method relative to control; format: functional; conditions: read-out: GI
Candida albicans [2] = experiment: Antifungal activity against Candida albicans 90028 assessed as fungal growth inhibition at 2 ug/ml measured after 48 hrs by microdilution method relative to control; format: functional; conditions: read-out: GI
[3] = Cytotoxicity against human MRC5 cells by CellTiter 96 Aqueous One Solution Reagent based assay; format: cell-based
Candida albicans [4] = experiment: Induction of cell demise in Candida albicans infected in human MRC5 cells at 16 ug/ml measured after 18 hrs by AO/propidium iodide staining based confocal laser scanning microscopy; format: functional, organism-based; conditions: dose 16.0 µg/ml
Candida albicans [5] = experiment: Antifungal activity against Candida albicans 90028 assessed as fungal growth inhibition at 16 ug/ml measured after 48 hrs by microdilution method relative to control; format: functional; conditions: read-out: GI
Candida albicans [6] = experiment: Antifungal activity against Candida albicans 90028 assessed as fungal growth inhibition at 0.0625 ug/ml measured after 48 hrs by microdilution method relative to control; format: functional; conditions: read-out: GI
Candida albicans [7] = experiment: Antifungal activity against Candida albicans 90028 infected in Galleria mellonella larvae at 16 ug/ml by H and E staining based histological analysis; format: functional, organism-based; conditions: dose 16.0 µg/ml
[8] = Toxicity in Galleria mellonella larvae assessed as survival at 16 ug/ml relative to control; conditions: at 16 µg/mL
Candida albicans [9] = experiment: Antifungal activity against Candida albicans 90028 assessed as fungal growth inhibition at 0.0313 ug/ml measured after 48 hrs by microdilution method relative to control; format: functional; conditions: read-out: GI
Candida albicans [10] = experiment: Fungicidal activity against Candida albicans 90028 preincubated for 48 hrs followed by plating on SD agar and measured after 48 hrs; format: functional; conditions: time 96 hrs
Candida albicans [11] = experiment: Antifungal activity against Candida albicans 90028 assessed as fungal growth inhibition measured after 48 hrs by microdilution method; format: functional
Candida albicans [12] = experiment: Antifungal activity against Candida albicans 90028 assessed as fungal growth inhibition at 0.0313 ug/ml measured after 18 hrs by microdilution method relative to control; format: functional; conditions: read-out: GI
Candida albicans [13] = experiment: Antifungal activity against Candida albicans 90028 assessed as fungal growth inhibition at 0.125 ug/ml measured after 48 hrs by microdilution method relative to control; format: functional; conditions: read-out: GI
Candida albicans [14] = experiment: Antifungal activity against Candida albicans 90028 assessed as fungal growth inhibition at 0.125 ug/ml measured after 18 hrs by microdilution method relative to control; format: functional; conditions: read-out: GI
Candida albicans [15] = experiment: Antifungal activity against Candida albicans 90028 assessed as fungal growth inhibition at 1 ug/ml measured after 18 hrs by microdilution method relative to control; format: functional; conditions: read-out: GI
Candida albicans [16] = experiment: Induction of plasma membrane permeabilization in Candida albicans infected in human MRC5 cells at 16 ug/ml measured after 18 hrs by propidium iodide staining based confocal laser scanning microscopy; format: functional, organism-based; conditions: dose 16.0 µg/ml
[17] = Drug uptake in Galleria mellonella larvae assessed as increase in fluorescence near the proventriculus measured after 2 hrs by fluorescence assay; format: ADME
Candida albicans [18] = experiment: Antifungal activity against Candida albicans 90028 assessed as fungal growth inhibition at 4 ug/ml measured after 48 hrs by microdilution method relative to control; format: functional; conditions: read-out: GI
Candida albicans [19] = experiment: Antifungal activity against Candida albicans 90028 assessed as fungal growth inhibition at 0.0625 ug/ml measured after 18 hrs by microdilution method relative to control; format: functional; conditions: read-out: GI
Candida albicans [20] = experiment: Induction of plasma membrane permeabilization in Candida albicans infected in human TR146 cells at 16 ug/ml measured after 18 hrs by propidium iodide staining based confocal laser scanning microscopy; format: functional, organism-based; conditions: dose 16.0 µg/ml
Candida albicans [21] = experiment: Antifungal activity against Candida albicans 90028 assessed as fungal growth inhibition at 16 ug/ml measured after 18 hrs by microdilution method relative to control; format: functional; conditions: read-out: GI
Candida albicans [22] = experiment: Antifungal activity against Candida albicans 90028 assessed as fungal growth inhibition at 0.5 ug/ml measured after 48 hrs by microdilution method relative to control; format: functional; conditions: read-out: GI
Candida albicans [23] = experiment: Antifungal activity against Candida albicans 90028 assessed as fungal growth inhibition at 0.25 ug/ml measured after 18 hrs by microdilution method relative to control; format: functional; conditions: read-out: GI
Candida albicans [24] = experiment: Induction of cell demise in Candida albicans infected in human TR146 cells at 16 ug/ml measured after 18 hrs by AO/propidium iodide staining based confocal laser scanning microscopy; format: functional, organism-based; conditions: dose 16.0 µg/ml
Candida albicans [25] = experiment: Antifungal activity against Candida albicans 90028 assessed as fungal growth inhibition at 2 ug/ml measured after 18 hrs by microdilution method relative to control; format: functional; conditions: read-out: GI
Candida albicans [26] = experiment: Antifungal activity against Candida albicans 90028 assessed as fungal growth inhibition at 0.25 ug/ml measured after 48 hrs by microdilution method relative to control; format: functional; conditions: read-out: GI
Candida albicans [27] = experiment: Antifungal activity against Candida albicans 90028 assessed as fungal growth inhibition at 0.5 ug/ml measured after 18 hrs by microdilution method relative to control; format: functional; conditions: read-out: GI
Vero = experiment: Cytotoxicity against African green monkey Vero cells at 0.25 to 512 ug/ml by XTT assay relative to control; format: cell-based; conditions: chlorocebus sabaeus, at 0.25 to 512 µg/mL, dose 0.25-512 µg/ml
Candida albicans [28] = experiment: Antifungal activity against Candida albicans 90028 assessed as fungal growth inhibition at 8 ug/ml measured after 18 hrs by microdilution method relative to control; format: functional; conditions: read-out: GI
Candida albicans [29] = experiment: Antifungal activity against Candida albicans 90028 assessed as fungal growth inhibition at 1 ug/ml measured after 48 hrs by microdilution method relative to control; format: functional; conditions: read-out: GI
Candida albicans [30] = experiment: Antifungal activity against Candida albicans 90028 assessed as fungal growth inhibition at 4 ug/ml measured after 18 hrs by microdilution method relative to control; format: functional; conditions: read-out: GI
[31] = Drug uptake in Galleria mellonella larvae assessed as increase in fluorescence in longitudinal larva slides measured after 2 hrs by fluorescence assay; format: ADME, tissue-based
[32] = Drug uptake in Galleria mellonella larvae assessed as increase in fluorescence between cell wall and muscle layer measured after 2 hrs by fluorescence assay; format: ADME
[33] = Cytotoxicity against African green monkey Vero cells by XTT assay; format: cell-based; conditions: chlorocebus sabaeus

Molecule `O=[N+]([O-])c1cc(S(=O)(=O)C(F)(F)Cl)ccc1N/N=C\c1ccc(C2=C3C=CC=[N+]3[B-](F)(F)n3cccc32)cc1` has an inhibition of growth at 8 µg/mL (Candida albicans [1]) of 100%, an inhibition of growth at 2 µg/mL (Candida albicans [2]) of 100% and a CC50 [3] of at least 16 µg/mL. For the same molecule, the Activity (Candida albicans [4]) was “Active”, the inhibition of growth at 16 µg/mL (Candida albicans [5]) was 100% and the inhibition of growth at 0.0625 µg/mL (Candida albicans [6]) was 99.8%. The Activity (Candida albicans [7]) was “inactive”, the survival [8] was 93% and the inhibition of growth at 0.0313 µg/mL (Candida albicans [9]) was 99.8%. The MFC (Candida albicans [10]) was at least 16 µg/mL, the MIC (Candida albicans [11]) was “inactive” and the inhibition of growth at 0.0313 µg/mL (Candida albicans [12]) was 100%. The inhibition of growth at 0.125 µg/mL (Candida albicans [13]) was 100%, the inhibition of growth at 0.125 µg/mL (Candida albicans [14]) was 99.8% and the inhibition of growth at 1 µg/mL (Candida albicans [15]) was 100%. For the same molecule, the Activity (Candida albicans [16]) was “Active”, the Drug uptake [17] was “Active” and the inhibition of growth at 4 µg/mL (Candida albicans [18]) was 100%. The inhibition of growth at 0.0625 µg/mL (Candida albicans [19]) was 100%, the Activity (Candida albicans [20]) was “Active” and the inhibition of growth at 16 µg/mL (Candida albicans [21]) was 100%. The inhibition of growth at 0.5 µg/mL (Candida albicans [22]) was 100%, the inhibition of growth at 0.25 µg/mL (Candida albicans [23]) was 100% and the Activity (Candida albicans [24]) was “Active”. The inhibition of growth at 2 µg/mL (Candida albicans [25]) was 99.9%, the inhibition of growth at 0.25 µg/mL (Candida albicans [26]) was 99.9% and the inhibition of growth at 0.5 µg/mL (Candida albicans [27]) was 99.8%. It also gave an Activity (Vero) of 100%, an inhibition of growth at 8 µg/mL (Candida albicans [28]) of 100% and an inhibition of growth at 1 µg/mL (Candida albicans [29]) of 100%. For the same molecule, the inhibition of growth at 4 µg/mL (Candida albicans [30]) was 100% and the Drug uptake [31] was “Not Active”.

With `O=Cc1ccc(C2=C3C=CC=[N+]3[B-](F)(F)n3cccc32)cc1` the Drug uptake [32] was “Active”.

With `O=[N+]([O-])c1cc(S(=O)(=O)C(F)(F)I)ccc1N/N=C\c1ccc(C2=C3C=CC=[N+]3[B-](F)(F)n3cccc32)cc1` the inhibition of growth at 8 µg/mL (Candida albicans [1]) was 100%, the inhibition of growth at 2 µg/mL (Candida albicans [2]) was 100% and the CC50 [3] was at least 16 µg/mL. For the same molecule, the Activity (Candida albicans [4]) was “Active”, the inhibition of growth at 16 µg/mL (Candida albicans [5]) was 100% and the inhibition of growth at 0.0625 µg/mL (Candida albicans [6]) was 94.3%. For the same molecule, the Activity (Candida albicans [7]) was “inactive”, the survival [8] was 100% and the inhibition of growth at 0.0313 µg/mL (Candida albicans [9]) was 75.8%. The MFC (Candida albicans [10]) was at least 16 µg/mL, the MIC (Candida albicans [11]) was “inactive” and the inhibition of growth at 0.0313 µg/mL (Candida albicans [12]) was 100%. The inhibition of growth at 0.125 µg/mL (Candida albicans [13]) was 95.5%, the inhibition of growth at 0.125 µg/mL (Candida albicans [14]) was 100% and the inhibition of growth at 1 µg/mL (Candida albicans [15]) was 100%. For the same molecule, the Activity (Candida albicans [16]) was “Active”, the inhibition of growth at 4 µg/mL (Candida albicans [18]) was 100% and the inhibition of growth at 0.0625 µg/mL (Candida albicans [19]) was 100%. For the same molecule, the Activity (Candida albicans [20]) was “Active”, the inhibition of growth at 16 µg/mL (Candida albicans [21]) was 100% and the inhibition of growth at 0.5 µg/mL (Candida albicans [22]) was 100%. The inhibition of growth at 0.25 µg/mL (Candida albicans [23]) was 100%, the Activity (Candida albicans [24]) was “Active” and the inhibition of growth at 2 µg/mL (Candida albicans [25]) was 100%. For the same molecule, the inhibition of growth at 0.25 µg/mL (Candida albicans [26]) was 97%, the inhibition of growth at 0.5 µg/mL (Candida albicans [27]) was 100% and the CC50 [33] was at least 8 µg/mL. It also gave an inhibition of growth at 8 µg/mL (Candida albicans [28]) of 100%, an inhibition of growth at 1 µg/mL (Candida albicans [29]) of 100% and an inhibition of growth at 4 µg/mL (Candida albicans [30]) of 100%. The Drug uptake [31] was “Not Active”.
